The Kinase Knowledgebase extract (Sharma et al. 2016)

biological target: PIK3CA (human) (UniProt P42336); assay: Assessment of PI3KCA Kinase Activity
Sequence (P42336 whole entry, looked up): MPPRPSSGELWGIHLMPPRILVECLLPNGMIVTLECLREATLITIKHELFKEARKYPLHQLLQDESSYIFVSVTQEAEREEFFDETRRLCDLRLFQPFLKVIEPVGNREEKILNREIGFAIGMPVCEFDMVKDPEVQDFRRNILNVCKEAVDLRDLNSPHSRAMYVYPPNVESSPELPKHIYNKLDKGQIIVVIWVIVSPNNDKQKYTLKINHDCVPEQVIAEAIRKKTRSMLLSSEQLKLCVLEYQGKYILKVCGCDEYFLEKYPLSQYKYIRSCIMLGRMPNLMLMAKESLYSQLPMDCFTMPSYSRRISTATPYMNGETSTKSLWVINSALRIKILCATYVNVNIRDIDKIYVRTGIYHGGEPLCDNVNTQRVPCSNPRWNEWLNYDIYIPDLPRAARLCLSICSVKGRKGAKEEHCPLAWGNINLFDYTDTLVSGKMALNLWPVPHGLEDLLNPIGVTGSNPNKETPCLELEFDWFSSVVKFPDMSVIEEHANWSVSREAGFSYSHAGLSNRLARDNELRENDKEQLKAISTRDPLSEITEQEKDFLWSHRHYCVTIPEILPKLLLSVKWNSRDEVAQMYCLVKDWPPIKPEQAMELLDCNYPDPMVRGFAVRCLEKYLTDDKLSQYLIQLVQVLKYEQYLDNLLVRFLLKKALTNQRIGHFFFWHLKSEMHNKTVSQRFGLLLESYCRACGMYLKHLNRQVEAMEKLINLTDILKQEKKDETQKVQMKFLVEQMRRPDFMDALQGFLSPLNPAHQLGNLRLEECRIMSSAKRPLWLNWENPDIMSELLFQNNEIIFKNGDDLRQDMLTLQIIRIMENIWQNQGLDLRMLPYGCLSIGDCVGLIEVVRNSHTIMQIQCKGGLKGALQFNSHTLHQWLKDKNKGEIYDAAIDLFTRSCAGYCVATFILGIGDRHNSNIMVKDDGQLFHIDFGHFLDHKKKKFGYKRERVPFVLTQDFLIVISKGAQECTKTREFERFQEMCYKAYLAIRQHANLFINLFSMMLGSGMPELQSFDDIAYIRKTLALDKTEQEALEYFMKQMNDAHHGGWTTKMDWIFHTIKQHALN

| SMILES | IC50 [nM] |
| --- | --- |
| Cc1nn2ccccc2c1-c1nc(OCc2ccccc2)c(-c2nnc[nH]2)s1 | < 100 |
| N#Cc1c(-c2ccnc(NC(N)=O)c2)sc(-c2nnc[nH]2)c1-c1ccc(Cl)cc1Cl | < 100 |
| Nc1cc(-c2nc(-c3ccccc3)c(-c3nnc[nH]3)s2)ccn1 | 100 to 1000 |
| COCC(=O)Nc1cc(-c2sc(-c3nnc[nH]3)c(-c3ccc(Cl)cc3Cl)c2C#N)ccn1 | < 100 |
| N#Cc1c(-c2ccnc(N)c2)sc(-c2ncc[nH]2)c1-c1ccc(Cl)cc1Cl | < 100 |
| Cc1nn2ccccc2c1-c1nc(-c2ccc(NC(=O)OCc3ccccc3)cc2)c(-c2nc[nH]n2)s1 | 100 to 1000 |
| CCCOc1nc(-c2c(C)nn3ccccc23)sc1-c1nnc[nH]1 | < 100 |
| CC(=O)Nc1cc(-c2nc(-c3ccccc3C(F)(F)F)c(-c3nnc[nH]3)s2)ccn1 | 100 to 1000 |
| COCCNc1cc(-c2sc(-c3nnc[nH]3)c(-c3ccc(Cl)cc3Cl)c2C#N)ccn1 | 100 to 1000 |
| c1ccc(-c2nc(-c3ccnc4[nH]ccc34)sc2-c2nnc[nH]2)cc1 | < 100 |
| Cc1nn2ccc(OCCN3CCCCC3)cc2c1-c1nc(-c2ccccc2)c(-c2nnc[nH]2)s1 | < 100 |
| CCOc1nc(-c2ccnc(NC(=O)C(C)C)c2)sc1-c1nnc[nH]1 | 100 to 1000 |
| Clc1ccc(-c2cc(-c3ccnc4sccc34)sc2-c2ncc[nH]2)c(Cl)c1 | < 100 |
| Cc1nn2ccccc2c1-c1nc(-c2ccccc2N)c(-c2nc[nH]n2)s1 | < 100 |
| CC(=O)Nc1cc(-c2nc(-c3ccccc3)c(-c3nnc[nH]3)s2)cc(C)n1 | 100 to 1000 |
| Cc1nn2ccc(OCCN3CCNC(=O)C3)cc2c1-c1nc(-c2ccccc2)c(-c2nc[nH]n2)s1 | < 100 |
| CC(=O)N1CCC(Oc2ccn3nc(C)c(-c4nc(-c5ccccc5)c(-c5nc[nH]n5)s4)c3c2)CC1 | < 100 |
| C[C@H](O)C(=O)Nc1cc(-c2sc(-c3nnc[nH]3)c(-c3ccc(Cl)cc3Cl)c2C#N)ccn1 | 100 to 1000 |
| CC(=O)Nc1cc(-c2nc(-c3ccc(N(C)C)cc3)c(-c3ncc[nH]3)s2)ccn1 | 100 to 1000 |
| Cc1nn2ccccc2c1-c1nc(N(C)c2ccc(Cl)cc2)c(-c2nnc[nH]2)s1 | < 100 |
| CC(=O)Nc1cc(-c2nc(-c3ccccc3)c(-c3nnc[nH]3)s2)ccn1 | < 100 |
| COc1cccc(F)c1-c1nc(-c2c(C)nn3ccc(OCCN4CCN(C)CC4)cc23)sc1-c1nc[nH]n1 | < 100 |
| O=C(Nc1cc(-c2nc(-c3ccc(Cl)cc3Cl)c(-c3ncc[nH]3)s2)ccn1)C1CC1 | < 100 |
| Cc1nn2ccccc2c1-c1nc(-c2ccc(CO)cc2)c(-c2nc[nH]n2)s1 | < 100 |
| C=Cc1ccc2nc(C)c(-c3nc(-c4ccccc4)c(-c4nc[nH]n4)s3)n2c1 | < 100 |

| SMILES | IC50 [nM] |
| --- | --- |
| Cc1nn(C)c(C)c1-c1nc(-c2c(C)nn3ccccc23)sc1-c1nc[nH]n1 | < 100 |
| CCC(=O)Nc1cc(-c2sc(-c3nnc[nH]3)c(-c3ccc(Cl)cc3Cl)c2C#N)ccn1 | < 100 |
| N#Cc1c(-c2ccnc(NC(=O)C3CC3)c2)sc(-c2ccn[nH]2)c1-c1ccc(Cl)cc1Cl | < 100 |
| COC(=O)Nc1cc(-c2cc(-c3ccc(Cl)cc3Cl)c(-c3ncc[nH]3)s2)ccn1 | < 100 |
| Cc1nn2ccccc2c1-c1nc(-c2cnn(C)c2C)c(-c2nc[nH]n2)s1 | < 100 |
| CCOc1nc(-c2ccnc(NC(=O)c3ccno3)c2)sc1-c1nnc[nH]1 | < 100 |
| Cc1nn2ccc(OCc3ccc(C(F)(F)F)nc3)cc2c1-c1nc(-c2ccccc2)c(-c2nc[nH]n2)s1 | < 100 |
| CC(=O)Nc1cc(-c2cc(-c3ccc(Cl)cc3Cl)c(-c3ncc[nH]3)s2)ccn1 | < 100 |
| COC(=O)Nc1cc(-c2sc(-c3nnc[nH]3)c(-c3ccc(Cl)cc3Cl)c2C#N)ccn1 | < 100 |
| Nc1cc(-c2cc(-c3ccc(Cl)cc3Cl)c(-c3ncc[nH]3)s2)ccn1 | < 100 |
| CC(=O)Nc1cc(-c2sc(-c3ncc[nH]3)c(-c3ccc(Cl)cc3Cl)c2C#N)ccn1 | < 100 |
| CCNc1cc(-c2nc(-c3cc(CCN)ccc3Cl)c(-c3ncc[nH]3)s2)ccn1 | 100 to 1000 |
| CCOc1nc(-c2c(C)nn3ccccc23)sc1-c1nnc[nH]1 | < 100 |
| COCCCNc1nccc(-c2sc(-c3nnc[nH]3)c(-c3ccc(Cl)cc3Cl)c2C#N)n1 | < 100 |
| COc1ccccc1-c1nc(-c2c(C)nn3ccccc23)sc1-c1nnc[nH]1 | < 100 |
| Cc1nn2ccccc2c1-c1nc(-c2cccc(C(F)(F)F)c2)c(-c2nc[nH]n2)s1 | 100 to 1000 |
| N#Cc1c(-c2ccnc(N)c2)sc(-c2cnn[nH]2)c1-c1ccc(Cl)cc1Cl | 100 to 1000 |
| CC(=O)Nc1cc(-c2nc(Br)c(-c3ncc[nH]3)s2)ccn1 | 100 to 1000 |
| N#Cc1c(-c2ccncc2)sc(C(N)=O)c1-c1ccc(Cl)cc1Cl | 100 to 1000 |
| CC(=O)Nc1cc(-c2nc(-c3ccc(Cl)cc3Cl)c(-c3nc(C#N)c[nH]3)s2)ccn1 | 100 to 1000 |
| Cc1nn2ccccc2c1-c1nc(-c2ccc[nH]2)c(-c2nc[nH]n2)s1 | 100 to 1000 |
| Cc1nc2scc(C)n2c1-c1nc(-c2ccccc2)c(-c2nc[nH]n2)s1 | 100 to 1000 |
| CC(=O)NCCOc1ccn2nc(C)c(-c3nc(-c4ccccc4)c(-c4nc[nH]n4)s3)c2c1 | < 100 |
| Cc1nn2ccsc2c1-c1nc(-c2ccccc2)c(-c2cocn2)s1 | 100 to 1000 |
| N#Cc1c(-c2ccnc(Nc3nccs3)c2)sc(-c2ncc[nH]2)c1-c1ccc(Cl)cc1Cl | < 100 |

| SMILES | IC50 [nM] |
| --- | --- |
| Cc1nn2ccccc2c1-c1nc(-c2c(F)cccc2Cl)c(-c2nc[nH]n2)s1 | < 100 |
| Cc1nn2ccccc2c1-c1nc(-c2cc(F)ccc2F)c(-c2nc[nH]n2)s1 | < 100 |
| CC(=O)Nc1cc(-c2nc(-c3cn(C)nc3C(F)(F)F)c(-c3ncc[nH]3)s2)ccn1 | < 100 |
| C/C=C/c1nc(-c2c(C)nn3ccccc23)sc1-c1nnc[nH]1 | < 100 |
| CC(=O)Nc1cc(-c2nc(-c3ccc(Cl)cc3Cl)c(-c3nc(C)c[nH]3)s2)ccn1 | < 100 |
| N#Cc1c(-c2cc(N)ncn2)sc(C(N)=O)c1-c1ccc(Cl)cc1Cl | 100 to 1000 |
| Nc1nc2c(-c3cc(-c4ccc(Cl)cc4Cl)c(-c4ncc[nH]4)s3)ncnc2s1 | < 100 |
| CC(=O)Nc1cc(-c2sc(-c3cnn[nH]3)c(-c3ccc(Cl)cc3Cl)c2C#N)ccn1 | < 100 |
| CC(=O)Nc1cc(-c2sc(-c3nccn3C)c(-c3ccc(Cl)cc3Cl)c2C#N)ccn1 | 100 to 1000 |
| N#Cc1c(-c2ccnc(N)n2)sc(-c2nnc[nH]2)c1-c1ccc(Cl)cc1Cl | < 100 |
| CN(C)CC(=O)Nc1cc(-c2sc(-c3nnc[nH]3)c(-c3ccc(Cl)cc3Cl)c2C#N)ccn1 | 100 to 1000 |
| CC(=O)Nc1cc(-c2nc(-c3csc4ccccc34)c(-c3ncc[nH]3)s2)ccn1 | 100 to 1000 |
| O=c1ccc2c(-c3nc(-c4ccc(Cl)cc4Cl)c(-c4ncc[nH]4)s3)ccnc2[nH]1 | < 100 |
| Cc1nc2ccc(CNCCN)cn2c1-c1nc(-c2ccccc2)c(-c2nnc[nH]2)s1 | < 100 |
| Cc1nc2ccc(CN3CC[C@H](N)C3)cn2c1-c1nc(-c2ccccc2)c(-c2nnc[nH]2)s1 | < 100 |
| Cc1cc(-c2cc(-c3ccc(Cl)cc3Cl)c(-c3ncc[nH]3)s2)ccn1 | < 100 |
| Cc1nn2ccccc2c1-c1nc(-c2cccc(F)c2)c(-c2nnc[nH]2)s1 | < 100 |
| CC(=O)Nc1cc(-c2nc(-c3cc4ccccc4s3)c(-c3ncc[nH]3)s2)ccn1 | < 100 |
| CCOc1nc(-c2ccnc(NC(=O)C3CCCC3)c2)sc1-c1nnc[nH]1 | 100 to 1000 |
| COc1ccc(-c2nc(-c3ccnc(NC(C)=O)c3)sc2-c2ncc[nH]2)cc1 | 100 to 1000 |
| O=C(Nc1cc(-c2nc(-c3ccccc3)c(-c3nnc[nH]3)s2)ccn1)C1CC1 | < 100 |
| Cc1nn2ccccc2c1-c1nc(-c2ccccc2F)c(-c2nnc[nH]2)s1 | < 100 |
| CC(C)C(=O)Nc1cc(-c2sc(-c3ncc[nH]3)c(-c3ccc(Cl)cc3Cl)c2C#N)ccn1 | < 100 |
| CC(=O)Nc1cc(-c2nc(-c3cccc(Cl)c3)c(-c3ncc[nH]3)s2)ccn1 | 100 to 1000 |
| CC(=O)Nc1cc(-c2nc(-c3ccc4nonc4c3)c(-c3ncc[nH]3)s2)ccn1 | 100 to 1000 |

| SMILES | IC50 [nM] |
| --- | --- |
| Cc1nn2ccccc2c1-c1nc(-c2ccsc2)c(-c2nnc[nH]2)s1 | < 100 |
| Cc1nn2ccc(OCCNC(=O)C(C)(C)C)cc2c1-c1nc(-c2ccccc2)c(-c2nc[nH]n2)s1 | < 100 |
| CC(=O)Nc1cc(-c2sc(-c3nccn3Cc3ccccn3)c(-c3ccc(Cl)cc3Cl)c2C#N)ccn1 | 100 to 1000 |
| Clc1ccc(-c2cc(-c3ncnc4[nH]cnc34)sc2-c2ncc[nH]2)c(Cl)c1 | 100 to 1000 |
| CCOc1nc(-c2ccnc(NC(=O)COc3ccccc3)c2)sc1-c1nnc[nH]1 | 100 to 1000 |
| C=CCOc1nc(-c2c(C)nn3ccccc23)sc1-c1nnc[nH]1 | < 100 |
| CC(=O)Nc1cc(-c2nc(-c3ccc(N)nc3)c(-c3ncc[nH]3)s2)ccn1 | 100 to 1000 |
| COC[C@@H]1CCCN1CCC(=O)Nc1cc(-c2nc(-c3ccccc3)c(-c3nnc[nH]3)s2)ccn1 | 100 to 1000 |
| N#Cc1c(-c2ccnc(N)c2)sc(C(N)=O)c1-c1ccc(Cl)cc1Cl | < 100 |
| c1ccc(-c2nc(-c3ccnc4ccsc34)sc2-c2nnc[nH]2)cc1 | < 100 |
| CC(=O)Nc1cc(-c2sc(-c3nccn3Cc3ccccc3)c(-c3ccc(Cl)cc3Cl)c2C#N)ccn1 | < 100 |
| CC(=O)Nc1cc(-c2nc(-c3cccc(C(F)(F)F)c3)c(-c3ncc[nH]3)s2)ccn1 | 100 to 1000 |
| Cc1nn2ccccc2c1-c1nc(-c2ccccc2OCc2ccccc2)c(-c2nc[nH]n2)s1 | 100 to 1000 |
| Cc1nn2ccsc2c1-c1nc(-c2ccccc2)c(-c2ccn[nH]2)s1 | < 100 |
| CC(=O)Nc1cc(-c2sc(-c3nnc[nH]3)c(-c3ccc(Cl)cc3Cl)c2C#N)c(F)cn1 | 100 to 1000 |
| N#Cc1c(-c2ccnc(NS(N)(=O)=O)c2)sc(-c2nnc[nH]2)c1-c1ccc(Cl)cc1Cl | 100 to 1000 |
| Clc1cc(-c2nc(-c3ccccc3)c(-c3nnc[nH]3)s2)ccn1 | 100 to 1000 |
| CC(=O)Nc1cc(-c2nc(-c3ccc(Cl)cc3Cl)c(-c3ncc[nH]3)s2)c(C)cn1 | 100 to 1000 |
| CCOc1nc(-c2ccnc(NC(=O)c3ccc(F)cc3)c2)sc1-c1nnc[nH]1 | 100 to 1000 |
| CCOc1nc(-c2ccnc(NC(=O)c3cccc(OC)c3)c2)sc1-c1nnc[nH]1 | 100 to 1000 |
| N#Cc1c(-c2ccnc(NC(N)=O)c2)sc(-c2ccn[nH]2)c1-c1ccc(Cl)cc1Cl | < 100 |
| Cc1nn2ccc(OCCN3CCCCC3)cc2c1-c1nc(-c2ccccc2F)c(-c2nc[nH]n2)s1 | < 100 |
